We go through nine molecules from PMC6151589, “Identification of Optically Active Pyrimidine Derivatives as Selective 5-HT2C Modulators” (Molecules : A Journal of Synthetic Chemistry and Natural …, 2017).

Where two headings read alike, the source gives them in different places.

What all share (assay type): binding
The target in assay [1] is T1, 5-HT2A (Homo sapiens, UniProt P28223).
T1 construct: gene HTR2A; human recombinant receptor; crude membrane fractions of transfected HEK293 or CHO cells
T1 sequence (P28223 whole entry): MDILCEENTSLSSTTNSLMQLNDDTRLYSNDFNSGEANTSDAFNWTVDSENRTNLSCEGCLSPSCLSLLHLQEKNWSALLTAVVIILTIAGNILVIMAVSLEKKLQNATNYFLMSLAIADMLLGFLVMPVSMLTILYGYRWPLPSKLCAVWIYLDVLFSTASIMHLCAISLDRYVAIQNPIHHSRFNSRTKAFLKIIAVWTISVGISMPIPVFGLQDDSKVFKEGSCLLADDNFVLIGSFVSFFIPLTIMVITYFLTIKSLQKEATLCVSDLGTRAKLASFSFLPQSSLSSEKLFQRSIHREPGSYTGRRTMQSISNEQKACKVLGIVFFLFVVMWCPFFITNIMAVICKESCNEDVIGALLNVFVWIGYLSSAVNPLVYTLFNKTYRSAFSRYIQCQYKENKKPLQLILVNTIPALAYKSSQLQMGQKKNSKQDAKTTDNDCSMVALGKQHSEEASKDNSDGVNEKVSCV
Kind of assay: radioligand displacement, membranes. The text has this:
radioligand displacement, membranes on 5-HT2A

For assay [2], the target named is T2, 5-HT2C (Homo sapiens, UniProt P28335).
T2 construct: gene HTR2C; human recombinant receptor; crude membrane fractions of transfected cells (CHO-K1; HEK293 or CHO)
T2 sequence (P28335 33-458): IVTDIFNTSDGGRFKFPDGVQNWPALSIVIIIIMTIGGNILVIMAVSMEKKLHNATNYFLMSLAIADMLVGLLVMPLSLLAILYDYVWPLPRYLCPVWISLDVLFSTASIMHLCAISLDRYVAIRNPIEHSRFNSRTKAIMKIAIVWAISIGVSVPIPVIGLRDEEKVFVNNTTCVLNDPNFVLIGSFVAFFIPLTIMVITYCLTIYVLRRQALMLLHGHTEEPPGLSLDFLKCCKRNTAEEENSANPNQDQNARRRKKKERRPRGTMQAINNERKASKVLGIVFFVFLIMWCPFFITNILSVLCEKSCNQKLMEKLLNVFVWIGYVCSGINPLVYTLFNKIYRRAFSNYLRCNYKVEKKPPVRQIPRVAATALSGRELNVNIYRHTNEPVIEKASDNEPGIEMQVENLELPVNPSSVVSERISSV
Nature of the assay: [3H]mesulergine displacement, membranes. The text has this:
[3H]mesulergine displacement, membranes on 5-HT2C

Assay [3] concerns the target T3, 5-HT2B (Homo sapiens, UniProt P41595).
T3 construct: gene HTR2B; human recombinant receptor; crude membrane fractions of transfected HEK293 or CHO cells
Nature of the assay: radioligand displacement, membranes. The text has this: radioligand displacement, membranes on 5-HT2B
(In general: Loss of bound radioactivity is the signal in a displacement assay; it reports binding, not function.)

Assay [4] concerns the target T2, 5-HT2C. Kind of assay: [3H]mesulergine displacement, membranes. Conditions: read-out: 5-HT2B / Ki.

T3 sequence (P41595 whole entry): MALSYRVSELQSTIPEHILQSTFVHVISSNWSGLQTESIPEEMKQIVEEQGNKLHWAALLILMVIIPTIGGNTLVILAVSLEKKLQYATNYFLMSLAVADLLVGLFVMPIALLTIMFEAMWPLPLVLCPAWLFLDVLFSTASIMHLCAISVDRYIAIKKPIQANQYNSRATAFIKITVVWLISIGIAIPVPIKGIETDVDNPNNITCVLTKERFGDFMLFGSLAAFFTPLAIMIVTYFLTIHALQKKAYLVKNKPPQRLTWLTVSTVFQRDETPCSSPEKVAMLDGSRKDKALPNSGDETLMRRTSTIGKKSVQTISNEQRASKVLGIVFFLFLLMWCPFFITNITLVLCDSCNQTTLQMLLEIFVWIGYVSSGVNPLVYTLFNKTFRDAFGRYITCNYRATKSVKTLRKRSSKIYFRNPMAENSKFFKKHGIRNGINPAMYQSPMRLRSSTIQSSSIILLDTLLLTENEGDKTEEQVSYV

With `C[C@@H]1CNCCN1c1ncc(F)c(OCc2ccccc2F)n1` [4a, (R)-5-Fluoro-4-((2-fluorobenzyl)oxy)-2-(2-methylpiperazin-1-yl)pyrimidine], the Ki came out at 0.08 µM in assay [1], 0.031 µM in assay [2] and 0.056 µM in assay [3].

As for `CC(CCc1cccc(F)c1)Oc1nc(N2CCNC[C@H]2C)ncc1F` (mixture of isomers) [4h, 5-Fluoro-4-((4-(3-fluorophenyl)butan-2-yl)oxy)-2-((R)-2-methylpiperazin-1-l)pyrimidine], the Ki in assay [1] was found to be 0.17 µM; in assay [2] it was 0.014 µM; in assay [3] it was 0.016 µM.

For `C[C@@H]1CNCCN1c1ncc(F)c(OCc2cccc(F)c2)n1` [4b, (R)-5-Fluoro-4-((3-fluorobenzyl)oxy)-2-(2-methylpiperazin-1-yl)pyrimidine], the figures for the Ki in assay [1], in assay [2] and in assay [3] were 0.043 µM, 0.0051 µM and 0.014 µM, respectively.

Regarding `C[C@@H]1CNCCN1c1ncc(F)c(OCCCc2cccc(F)c2)n1` [4f, (R)-5-Fluoro-4-(3-(3-fluorophenyl)propoxy)-2-(2-methylpiperazin-1-yl)pyrimidine], the Ki amounted to 0.138 µM in assay [1], 0.02 µM in assay [2] and 0.024 µM in assay [3].

Take `CC(Oc1nc(N2CCNC[C@H]2C)ncc1F)c1ccc(F)cc1` (mixture of isomers) [4e, 5-Fluoro-4-(1-(4-fluorophenyl)ethoxy)-2-((R)-2-methylpiperazin-1-yl)pyrimidine]: the results for the Ki in assay [1], in assay [2] and in assay [3] were 0.426 µM, 0.0045 µM and 0.01 µM, respectively.

Take `CC(Oc1nc(N2CCNC[C@H]2C)ncc1F)c1cccc(F)c1` (mixture of isomers) [4d, 5-Fluoro-4-(1-(3-fluorophenyl)ethoxy)-2-((R)-2-methylpiperazin-1-yl)pyrimidine]: the figures for the Ki in assay [1], in assay [2] and in assay [3] were 0.213 µM, 0.0027 µM and 0.0048 µM, respectively.

With `C[C@@H]1CNCCN1c1ncc(F)c(OCCCc2ccc(F)cc2)n1` [4g, (R)-5-Fluoro-4-(3-(4-fluorophenyl)propoxy)-2-(2-methylpiperazin-1-yl)pyrimidine], the results for the Ki in assay [4], in assay [1] and in assay [3] were 0.022 µM, 0.09 µM and 0.022 µM, respectively.

Turning to `CC(CCc1ccc(F)cc1)Oc1nc(N2CCNC[C@H]2C)ncc1F` (mixture of isomers) [4i, 5-Fluoro-4-((4-(4-fluorophenyl)butan-2-yl)oxy)-2-((R)-2-methylpiperazin-1-yl)pyrimidine], the values for the Ki in assay [1], in assay [2] and in assay [3] were 0.173 µM, 0.012 µM and 0.022 µM, respectively.

On to `C[C@@H]1CNCCN1c1ncc(F)c(OCc2ccc(F)cc2)n1` [4c, (R)-5-Fluoro-4-((4-fluorobenzyl)oxy)-2-(2-methylpiperazin-1-yl)pyrimidine], for which the Ki in assay [1] is 0.051 µM; in assay [2] it was 0.022 µM; in assay [3], 0.014 µM.
